Measurements from patent US20040132817A1, “Use of an histone deacetylase inhibitor for the treatment of diseases associated with an hpv infection” (priority 2001, published 2004).

Key:
cdk2 = assay: Western blot of cdk2 in HeLa cells; assay type: cell-based, human
Experimental: (§1) 50 μg of protein were separated on 12% SDS-PAGE minigels. After electrotransfer, the filters were incubated with antibodies against cyclin D1, cyclin E, cyclin A or cdk2, cdk4 or cdk6 specific antibodies. Equal protein loading was confirmed by reincubating the filters with a monoclonal actin antibody.
(A) Western blot analysis. 75 μg of total cellular protein was loaded on a 12% SDS-PAGE gel. After electrotransfer, the filters were incubated with antibodies directed against HPV18 E7, p21^CIP1 (=p21), p27^KIP1 (=p27) and cdk2.
Cellular extracts were separated in 8-12% SDS PAGE gels and electrotransferred as described elsewhere (Finzer et al., Oncogene 19 (2000), 3235-3244; Soto et al., Oncogene 18 (1999), 3187-3198). The following antibodies were used: cyclin E (HE 12), cyclin D 1 (HD 11), cdk2 (M2), (D-12; Santa Cruz Biotechnology, Inc., Santa Cruz, USA), cdk4 (C-22), cdk6 (C-21), p27^KIP1 (C-19), (K25020), p45^SKP2 (N-19), HPV18-E7 (N-19) and E2F-1 (KH95) (Santa Cruz Biotechnology, Inc. Santa Cruz, USA), p21^CIP1 (C24420; Transduction Laboratories, Lexington, USA), pRB (NCL-RB; Novocastra, UK), p16^INK4 (15126E, Pharmingen, San Diego, USA) and HPV 16 E7 (ZYMED Lab. Inc., San Francisco, USA). Cyclin A was kindly provided by M. Pagano (Pagano et al., EMBO J. 11 (1992), 961-971). […]

p21CIP1 = assay: Western blot of p21CIP1 in "1321" and "1637" keratinocytes; assay type: cell-based, human; settings: "1321" and "1637" cells, 6 mM sodium butyrate, 16 hours
Experimental: (B) 75 μg of protein was separated in 12% SDS-PAGE gels as described above (see FIG. 2).
(§2) Cellular extracts were separated in 8-12% SDS PAGE gels and electrotransferred as described elsewhere (Finzer et al., Oncogene 19 (2000), 3235-3244; Soto et al., Oncogene 18 (1999), 3187-3198). The following antibodies were used: cyclin E (HE 12), cyclin D 1 (HD 11), cdk2 (M2), (D-12; Santa Cruz Biotechnology, Inc., Santa Cruz, USA), cdk4 (C-22), cdk6 (C-21), p27^KIP1 (C-19), (K25020), p45^SKP2 (N-19), HPV18-E7 (N-19) and E2F-1 (KH95) (Santa Cruz Biotechnology, Inc. Santa Cruz, USA), p21^CIP1 (C24420; Transduction Laboratories, Lexington, USA), pRB (NCL-RB; Novocastra, UK), p16^INK4 (15126E, Pharmingen, San Diego, USA) and HPV 16 E7 (ZYMED Lab. Inc., San Francisco, USA). Cyclin A was kindly provided by M. Pagano (Pagano et al., EMBO J. 11 (1992), 961-971). Equal protein transfer and loading was routinely checked by incubating the filters with a monoclonal actin antibody (ICN Biomedicals, Ohio, USA).

cdk4 = assay: Western blot of cdk4 in HeLa cells; assay type: cell-based, human; settings: 6 mM sodium butyrate, 16 hours
Experimental: as §1, §2

[1] = tested on: HPV16 E6/E7 transcription; assay: Northern blot of HPV16 transcription in "1637" keratinocytes; assay type: cell-based; settings: "1637" cells, NaB
Experimental: (§3) Keratinocytes immortalized with HPV16 E6/E7 either under control of (A) the homologues viral upstream regulatory region (,1637″) or (B) of the β-actin promoter (,1321″) were incubated with NaB for various periods of time. 5 μg of RNA was separated in 1% agarose gels. The filters were hybridized with probes specific for HPV16, p21^CIP1 (=p21), β-actin and GAPDH. The positions of the 28S and 18S ribosomal RNA are indicated. (Contr.): untreated cells.
(A) 5 μg of RNA was separated in 1% agarose gels. The filters were hybridized with HPV 16, p21^CIP1 (=) p21 and GAPDH-specific probes. The positions of the 28S and 18S ribosomal RNA are indicated.
(§4) Total cellular RNA was extracted according to the guanidinium-thiocyanate procedure (Chomczynski and Sacchi, Anal. Biochem. 162 (1987), 156-159). Approximately 5 μg RNA were separated on 1% agarose gels in the presence of ethidium bromide under non-denaturing conditions and transferred to GeneScreen Plus membranes (DuPont, Bad Homburg, Deutschland). The filters were hybridized under stringent conditions with specific probes, which were labeled with ^32p-dCTP by random priming (Feinberg and Vogelstein, Anal. Biochem. 137 (1984), 266-267).

cyclin-cdk2 complex = assay: Western blot analysis of cdk2 immunoprecipitates from HeLa cells (p21, p27, E7 binding); assay type: cell-based, human
Excerpt: (B-E) Western blot analysis of the cdk2 complex. Cdk2 precipitates were separated in a 12% SDS-PAGE gel and immunoblotted with p21^CIP1 (B), p27^KIP1 (C) and HPV18 E7 specific antibodies.
(B) Cdk2 activity after NaB application. Upper panel: Cdk 2 complexes were immunoprecipitated and assayed for their activity using histone H1 as substrate. Lower panels: Western blot analysis of the cdk 2 complexes which were precipitated, separated in a 12% SDS-PAGE gel and immunoblotted with specific antibodies used in panel A. Loading was verified by incubation with cdk 2 antibodies.
For cell fractionation, cell monolayers were washed twice with PBS and harvested by trypsinisation. Cell extract preparation and cdk2 activity assays were exactly done as described by Blomberg and Hoffmann, Mol. Cell. Biol. 19 (1999), 6183-6194. In addition, cdk2 was immunoprecipitated and analyzed by immunoblotting. Beads used for cdk2 kinase assay were washed 3 times with lysis buffer (Blomberg and Hoffmann, 1999), incubated with Laemmli sample buffer and boiled for 5 min. Supernatant was analyzed by SDS-PAGE gels. Immunoblotting was carried out with the following antibodies: p21^CIP1 (C24420) and p27^KIP1 (K25020; Transduction Laboratories) or HPV18-E7 (N-19; Santa Cruz, Inc.). Cdk2 specific antibodies or preimmune serum were kindly provided by I. Hoffmann (DKFZ, Heidelberg).
Western blot analysis of the cdk2 complex. Cdk2 precipitates were separated in a 12% SDS-PAGE gel and immunoblotted with p21^CIP1, p27^KIP1 and HPV 18 E7 specific antibodies. Equal loading was verified by incubation with cdk2 antibodies. PI: preimmune serum. (Contr.): untreated cells; (DMSO): DMSO control; (TSA): treated with 330 nM trichostatin A for 16 hours.

p21^CIP1 mRNA = assay: Northern blot of p21^CIP1 in "1321" keratinocytes; assay type: cell-based, human; settings: "1321" cells, six hours following NaB addition
Experimental: as §3, §4

HeLa cells = assay: Quantification of apoptosis, Cell Death Detection ELISA, HeLa cells; assay type: cell-based, human; settings: 16 hours
Experimental: (D) Quantification of apoptosis using a commercially available “Cell Death Detection ELISA” kit.
The rate of apoptosis was determined with the Cell Death Detection kit (ELISA^PLUS, Roche Diagnostics, Mannheim, Germany) following the instructions of the manufacturer.
Quantification of apoptosis using a commercially available “Cell Death Detection ELISA” kit. The enrichment factor, for untreated control cells arbitrarily set as 1, directly reflects the extent of apoptosis in HeLa cells after treatment with trichostatin A for 16 hours. (Contr.): untreated cells; (DMSO): DMSO control; (TSA): treated with 330 nM trichostatin A for 16 hours.

cyclin D1 = assay: Western blot of cyclin D1 in HeLa cells; assay type: cell-based, human; settings: 6 mM sodium butyrate, 16 hours
Experimental: as §1, §2

cyclin A = assay: Western blot of cyclin A in HeLa cells; assay type: cell-based, human; settings: 16 hours
Experimental: as §1, §2
50 μg of protein was separated on 12% SDS-PAGE minigels. […]

[2] = 330 nM trichostatin A, 16 hours

For CCCC(=O)[O-].[Na+] [sodium butyrate], the cdk2 expression (cdk2; 6 mM sodium butyrate, 16 hours) was “neither the cyclin-dependent kinase 2 (cdk2) nor cdk4 or cdk6 revealed any significant influence on their expression rates”, the “amount of cdk2, time course” value (cdk2; NaB time course) was “completely unaffected” and the p21CIP1 level (p21CIP1) was “increased to the same extent”. The cdk4 expression (cdk4) was “neither the cyclin-dependent kinase 2 (cdk2) nor cdk4 or cdk6 revealed any significant influence on their expression rates”, the “HPV16 mRNA, time course” value [1] was “transient HPV16 mRNA suppression” and the “E7 in the cdk2 complex” value (cyclin-cdk2 complex; 6 mM sodium butyrate, 16 hours) was “completely disappeared”. The “association of p21^CIP1 and p27^KIP1 with the cdk2 complex” value (cyclin-cdk2 complex; 6 mM sodium butyrate, 16 hours) was “both CK1s became associated with the cdk2 complex”, the “E7 bound to cyclin-cdk2 complexes, time course” value (cyclin-cdk2 complex; NaB time course) was “completely disappeared between 12-16 hours” and the “association of p21^CIP1 and p27^KIP1 with the cdk2 complex, time course” value (cyclin-cdk2 complex; NaB time course) was “threshold amounts of both CKIs became associated with the cdk2 complex (between 12-16 hours)”. For the same compound, the p21CIP1 expression (p21^CIP1 mRNA) was “augmented”, the “apoptosis (release of histone-associated DNA fragments)” value (shortened to “apoptosis”) (HeLa cells; sodium butyrate) was “induce programmed cell death to a significant extent” and the “cyclin D1 protein level” value (cyclin D1) was “selectively downregulates”. The “cyclin A protein level” value (cyclin A; 6 mM sodium butyrate) was “selectively downregulates”.

CC(/C=C/C(=O)NO)=C\[C@@H](C)C(=O)c1ccc(N(C)C)cc1 [trichostatin A] was tested, and the “E7 binding to the cdk2 complex” value (cyclin-cdk2 complex; [2]) was “Loss of E7 Binding”, the “interaction of p21^CIP1 and p27^KIP1 with cdk2” value (cyclin-cdk2 complex; [2]) was “Enhanced Interaction” and the “apoptosis” value (HeLa cells; 330 nM trichostatin A) was “much stronger”. For the same compound, the “apoptosis” value (HeLa cells; 330 nM trichostatin A, listed as Trichostatin A) was “Induction of Apoptosis” and the “cyclin A protein level” value (cyclin A; 330 nM trichostatin A) was “Downregulates”.
